Tested on: Normal human dermal fibroblasts (HNDF)
Test: Myofibroblast transition assay (MFT), aSMA immunofluorescence
Type: cell-based
Settings: N = 3; for Myofibroblast transition (MFT), aSMA/cell, % change relative to control: TGF-Beta induced HNDF, control of no peptide; for MFT, Representative value from experiments (% change relative to control): most effective significant concentration of 10, 100, 1000 ng/ml
Source text: The myofibroblast transition (MFT) assay determines the effect of the peptide on inhibiting the transition of fibroblasts to myofibroblasts. The extracellular matrix produced by myofibroblasts may be produced in excess and may not be remodeled during tissue healing, leaving behind the fibrous connective tissue that forms a scar. Thus, the ability to regulate the degree of MFT may enable control of scarring. To determine if the peptides provided herein affect MFT, the following assay was performed.
Normal human dermal fibroblasts (HNDF) were cultured in high glucose Dulbecco's modified eagle medium (DMEM) supplemented with 10% fetal bovine serum (FBS) and 5 ml of 10,000 units of penicillin/streptomycin. Cells were cultured on 10 cm plates with media changes every 2 days. Cells were passaged in 0.25% Trypsin/EDTA after achieving 80% confluency.
To induce myofibroblast transition (MFT), normal human dermal fibroblasts (HNDFs) were split from 1-10 cm plates to 5-96 well plates. Cells were then allowed to grow the next day. The following day, cells were serum starved (1% FBS in DMEM) for 4 hours prior to adding 20 ng/ml of TGF-Beta to all wells of the plate. 1000 μM of Vactosertib (TEW-7197/EW-7197) was added to serve as a positive control and different concentrations of peptides were added to serve as the test articles. The cells were then exposed to the compounds for 5 more days before fixation.
The cells were fixed in paraformaldehyde (PFA) for 10-15 minutes, then washed 2× in PBS. Cells were blocked in 4% BSA for 30 minutes at 23° C. Cells were stained with the primary alpha-smooth muscle actin (aSMA) antibody (1:100) for 1 hour at 23° C. or left out at 4° C. overnight. Cells were rinsed 2× with BSA and then the secondary antibody mix was added: Alexa 488 (1:500) and DAPI (1:1000) for 30 min at 23° C. or 1 hr at 4° C. The plates were covered during staining, then rinsed 2× in BSA and stored in PBS.
Plates were imaged using the Celigo Imaging Cytometer by Nexcelcom. The ratio of fluorescent expression of alpha-smooth muscle actin (aSMA) and DAPI were quantified to determine the amount of aSMA/cell.
The change (normalized to the control) in MFT for each concentration is shown along with the p value for all experiments relative to the control of no peptide.

Substance	Myofibroblast transition (MFT), aSMA/cell, % change relative to control (100 ng/ml peptide)	MFT, Representative value from experiments (% change relative to control)	Myofibroblast transition (MFT), aSMA/cell, % change relative to control (10 ng/ml peptide)	Myofibroblast transition (MFT), aSMA/cell, % change relative to control (1000 ng/ml peptide)
EYENPGLRKRLRKFRNK [MBb10]	−0.2694%	−0.2694 p = (0.023) %	–	–
PHKGLFCHFGSPANRKIGV [MBWhit47]	−0.5896%	−0.6575 p = (0.021) %	−0.6575%	−0.5755%
LKEKKPAKEK [PC-1]	–	−0.4788 p = (0.038) %	–	−0.4788%
EELTRGLRKRLRKFRNK [MBb23]	−0.1203%	−0.1203 p = (0.016) %	–	–
AVHELGH [MBb24]	−0.1419%	−0.1419 p = (0.003) %	–	–
FFLRIHPDGRVDGVR [MBWhit1]	−0.3667%	−0.3667 p = (0.038) %	–	–
LPRDER [MBb3.2]	–	−0.3874 p = (0.003) %	–	−0.3874%
SDAAVDTSSEITTKDLKEKKEVVEEAENGR [PS-2]	−0.498%	−0.498 p = (0.048) %	−0.4315%	–
DPCPLCGLRKRLRKFRNK [MBb12]	−0.4465%	−0.4465 p = (0.037) %	–	–
VYFVIKT [MBBey41]	–	−0.691 p = (0.021) %	–	−0.691%
AKEVEKH [MBBey4]	−0.4435%	−0.4435 p = (0.007) %	−0.2205%	–
IGPGLP [MBb76]	−0.03421%	−0.1847 p = (0.009) %	–	−0.1847%
EEIDA [MBb1.2]	−0.3496%	−0.3496 p = (0.006) %	–	–
IAHELGH [MBb2.2]	−0.1476%	−0.1928 p = (0.021) %	−0.1592%	−0.1928%
DVLDKRLFWIQYNREG [MBWhit45]	−0.6265%	−0.6471 p = (0.018) %	−0.6471%	−0.6136%
ENIKKGLRKRLRKFRNK [MBb37]	−0.1426%	−0.1426 p = (0.032) %	–	–
IRTLDCDADKKDYCLFGRCQYIVELETFRCRCQKGYYGERCVYLEL [EA-2]	−0.3241%	−0.3241 p = (0.014) %	−0.1343%	−0.00716%
NTCHQCGLRKRLRKFRNK [MBb35]	−0.3719%	−0.4001 p = (0.016) %	–	−0.4001%

Substance	Myofibroblast transition (MFT), aSMA/cell, % change relative to control (100 ng/ml peptide)	MFT, Representative value from experiments (% change relative to control)	Myofibroblast transition (MFT), aSMA/cell, % change relative to control (10 ng/ml peptide)	Myofibroblast transition (MFT), aSMA/cell, % change relative to control (1000 ng/ml peptide)
MDQGYPKETVDDFPG [MBBey12]	−0.6665%	−0.6665 p = (0.007) %	–	−0.4491%
CGGLPGLRKRLRKFRNK [MBb41]	−0.6154%	−0.6154 p = (0.03) %	–	−0.2177%
HIWA VVPCIR (HIWAVVPCIR) [MBBey3]	−0.1442%	−0.1442 p = (0.037) %	–	–
KTHPGG [MBWhit38]	−0.3798%	−0.3798 p = (0.006) %	–	–
ASLHGNGLRKRLRKFRNK [MBb66]	−0.3446%	−0.3446 p = (0.024) %	–	–
IGERCQYRDLKWWELR [MBWhit44]	−0.5753%	−0.702 p = (0.025) %	−0.702%	−0.6111%
QLFEDVIAEP [MBBey 38]	–	−0.3071 p = (0.007) %	−0.3071%	–
GDIR VR (GDIRVR) [MBWhit33]	−0.3175%	−0.3527 p = (0.032) %	–	−0.3527%
DCRICS [MBa1]	−0.2174%	−0.2174 p = (0.04) %	–	–
PPSILGLRKRLRKFRNK [MBb44]	−0.1751%	−0.1751 p = (0.005) %	–	–
WVSGL [MBb7]	−0.1848%	−0.2139 p = (0.02) %	−0.2139%	–
IAHELGHNLGMSH [MBb25]	−0.1769%	−0.1769 p = (0.008) %	–	–
GESKGLGLRKRLRKFRNK [MBb36]	−0.1964%	−0.1964 p = (0.002) %	−0.07698%	–
RNPDSPQ [MBBey14]	−0.3863%	−0.5336 p = (0.012) %	−0.3781%	−0.5336%
VCDEPKDQTVVGPALAAYR [MBWhit46]	−0.6191%	−0.6328 p = (0.031) %	−0.534%	−0.6328%
VAAHELGHSLGMGH [MBm2]	−0.3275%	−0.4235 p = (0.007) %	−0.4235%	−0.2058%
EKKNPGLRKRLRKFRNK [MBb73]	−0.07558%	−0.07558 p = (0.04) %	–	–
ITCPHCQ [MBa9]	–	−0.3194 p = (0.02) %	–	−0.3194%

Reference: US20250108088A1, “REGENERATIVE PEPTIDES AND METHODS FOR USE THEREOF” (priority 2023, published 2025)
